Read-outs that look alike come from different tables or passages of the source.
Legend:
[1] = molecular target: T1, alpha-synuclein (Homo sapiens, UniProt P37840); assay: Nanopore analysis of alpha-synuclein (blockade current histograms); type: binding; conditions: for nanopore profile of additional bifunctional molecules: FIGS. 9A-9D; for binding to alpha-synuclein: method not stated for these compounds
Experimental: The bifunctional molecules were characterized by four different methods. […] If the compound causes a more compact conformation, then the alpha-synuclein can no longer translocate and it simply bumps into the pore giving rise to a very small change in the blockade current.^44-46
(§1) Nanopore analysis and isothermal titration calorimetry were performed as described previously.^21,54

[2] = molecular target: T1, alpha-synuclein; assay: Isothermal titration calorimetry (ITC) binding to alpha-synuclein; conditions: for # Binding sites: Table 2; for Bind to N and C?: binds to both N and C portions of alpha-synuclein; for # of Binding sites: bifunctional molecules (or monomers) per alpha-synuclein molecule, best fit; as to Bind to N and C?: key: Y indicates yes; N indicates no
Experimental: as §1

Structure (SMILES)	nanopore profile of additional bifunctional molecules [1]	# Binding sites [2]	Ka ([2]; Table 2, ITC)	Bind to N and C? [2]	binding to alpha-synuclein [1]	Kd ([2]; Table 2, ITC, read-out: Ka (converted))	Kd ([2]; Ka)	Ka ([2]; ITC in 1.0M KCl)	# of Binding sites ([2]; ITC in 1.0M KCl)
Cn1c(=O)c2c(ncn2CCN2CCCC2c2cccnc2)n(C)c1=O (racemic) [Compound C7-2-N]	bumping peaks, but have a shifted translocation peak visible as well	1	50000 M⁻¹	Y					
Cn1c(=O)c2c(ncn2CCCCN2CCCC2c2cccnc2)n(C)c1=O (racemic) [Compound C7-4-N]	bumping peaks, but have a shifted translocation peak visible as well	1	3e+06 M⁻¹	Y					
Cn1c(=O)c2c(ncn2CCCCCCCCN2CCCC2c2cccnc2)n(C)c1=O (racemic) [Compound C7-8-N]	bumping peaks, but have a shifted translocation peak visible as well	1	4e+06 M⁻¹	Y					
Cn1c(=O)c2c(nc(CCCCCCCCNC3CCc4ccccc43)n2C)n(C)c1=O (racemic) [Compound C8-8-I]					bind to alpha-synuclein				
Cn1c(=O)c2c(nc(CCCCCCCCN3CCCC3c3cccnc3)n2C)n(C)c1=O (racemic) [Compound C8-8-N]					bind to alpha-synuclein				
NC1CCc2c(F)cccc21 (stereo not shown) [4-Fluoro-indan-1-yl-amine, reference compound]		0.5		Y		333 nM			
Cn1c(=O)c2c(ncn2CCn2cnc3c2c(=O)n(C)c(=O)n3C)n(C)c1=O [Compound C7-2-C7]	significant bumping peaks	1	30000 M⁻¹	Y					
Cn1c(=O)c2c(ncn2CCNC2CCc3ccccc32)n(C)c1=O (stereo not shown) [Compound C7-2-I]	significant bumping peaks	1	90000 M⁻¹	Y					
Cn1c(=O)c2c(ncn2CCCCn2cnc3c2c(=O)n(C)c(=O)n3C)n(C)c1=O [Compound C7-4-C7]	significant bumping peaks	0.5	1e+07 M⁻¹	Y					
Cn1c(=O)c2c(ncn2CCCCNC2CCc3ccccc32)n(C)c1=O (stereo not shown) [Compound C7-4-I]	bumping peaks, but have a shifted translocation peak visible as well	1	5e+06 M⁻¹	Y					
Cn1c(=O)c2c(ncn2CCCCCCCCn2cnc3c2c(=O)n(C)c(=O)n3C)n(C)c1=O [Compound C7-8-C7]	significant bumping peaks	0.5	400000 M⁻¹	Y					
Cn1c(=O)c2c(ncn2CCCCCCCCNC2CCc3ccccc32)n(C)c1=O (stereo not shown) [Compound C7-8-I]	bumping peaks, but have a shifted translocation peak visible as well	0.5	2e+07 M⁻¹	Y					
CN1CCCC1c1cccnc1 (stereo not shown) [Nicotine, nicotine, reference compound]		1		Y			1000 nM		
N[C@@H]1CCc2ccccc21 [R-Aminoindan, reference compound]		1	1e+06 M⁻¹	Y				1e+06 M⁻¹	1
CN1CCC[C@@H]1c1cccnc1 [R-Nicotine, reference compound]							714 nM		1
N[C@H]1CCc2ccccc21 [S-Aminoindan, reference compound]		1	3e+06 M⁻¹	Y				3.1e+06 M⁻¹	1
CN1CCC[C@H]1c1cccnc1 [S-Nicotine, reference compound]								400000 M⁻¹	1
